According to patent US20100184815A1 (priority 2008, published 2010):
Blank lines part the entries; values can stand above or below the compound they belong to.

Legend:
Assay type in all cases: cell-based
Gal-4 hPPARα = biological target: T1, Gal-4 hPPARα (Homo sapiens, UniProt Q07869); experiment: Gal4-hPPARα transient transfection reporter assay in Cos cells; conditions: luciferase reporter, 24 hours with compound, scale 1-5, read-out: Gal-4 hPPAR α EC50 (scaled number)
T1 construct: Plasmids pGal4-hPPARα, pGal4-hPPARγ, pGal4-hPPARδ and pG5-TK-pGL3 were constructed as previously described by Staels, Bart, et al., Nature 1998 Jun; 25
T1 sequence (Q07869 200-468 limits assumed): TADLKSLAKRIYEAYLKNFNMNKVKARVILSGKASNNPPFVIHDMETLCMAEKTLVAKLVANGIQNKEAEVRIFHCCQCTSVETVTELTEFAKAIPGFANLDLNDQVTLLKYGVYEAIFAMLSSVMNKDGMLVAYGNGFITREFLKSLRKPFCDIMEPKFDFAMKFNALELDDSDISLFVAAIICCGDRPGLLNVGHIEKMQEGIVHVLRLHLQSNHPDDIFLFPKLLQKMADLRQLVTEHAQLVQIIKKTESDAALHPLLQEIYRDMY
Experimental: (§1) Construction of recombinant plasmids. Plasmids pGal4-hPPARα, pGal4-hPPARγ, pGal4-hPPARδ and pG5-TK-pGL3 were constructed as previously described by Staels, Bart, et al., Nature 1998 Jun. 25; 393 (6687): 790-793, by Staels (Institut Pasteur de Lille, FR).
(§2) Transient transfection assays. Cos cells were seeded in 60-mm dishes at a density of 5.5×10^5 cells/dish in Dulbecco's modified Eagle's medium (DMEM) supplemented with 10% fetal calf serum (FCS) and incubated at 37° C. for 24 hours before transfection. Cells were transfected in Opti-MEM (Gibco; Invitrogen, Carlsbad, Calif.) without FCS for 3 hours at 37° C., using polyethylenimine, with reporter and expression plasmids. The plasmid pBluescript (Stratagene, La Jolla, Calif.) was used as carrier DNA to set the final amount of DNA to 5.5 μg/dish. The pCMV-b-galactosidase expression plasmid was cotransfected as a control for transfection efficiency. Transfection was stopped by the addition of DMEM supplemented with 10% FCS, and cells were then incubated at 37° C. After 16 hours, cells were trypsinized and seeded in 96-well plates at the density of 2×10^4 cells/well and incubated for 6 hours in 10% FCS-containing DMEM. Cells were then incubated for 24 hours in DMEM containing 0.2% FCS and increasing concentrations of the compound tested or vehicle (DMSO). At the end of the experiment, cells were washed once with ice-cold PBS, lysed and the luciferase and b-galactosidase assays were performed in a luminometer and spectrophotomer. Transfection efficiencies were normalized with the b-galactosidase activity assay. Half-maximal effective concentration (EC50) was estimated using Prism software (GraphPad). All transfection experiments were performed at least three times.
(§3) In the following tables, proprietary compound EC50 values for hPPAR α, β, δ and γ are shown. The EC50 value is the concentration of a drug that induces a response halfway between the baseline and maximum, and is commonly used as a measure of drug potency. EC50 values are reported on a scale of 1 through 5, wherein the value scale is defined for each receptor as follows: […]

Gal-4 hPPARγ = biological target: T2, Gal-4 hPPARγ (Homo sapiens, UniProt P37231); experiment: Gal4-hPPARγ transient transfection reporter assay in Cos cells; conditions: luciferase reporter, 24 hours with compound, scale 1-5, read-out: Gal-4 hPPAR γ EC50 (scaled number)
T2 construct: Plasmids pGal4-hPPARα, pGal4-hPPARγ, pGal4-hPPARδ and pG5-TK-pGL3 were constructed as previously described by Staels, Bart, et al., Nature 1998 Jun; 25
T2 sequence (P37231 238-505 limits assumed): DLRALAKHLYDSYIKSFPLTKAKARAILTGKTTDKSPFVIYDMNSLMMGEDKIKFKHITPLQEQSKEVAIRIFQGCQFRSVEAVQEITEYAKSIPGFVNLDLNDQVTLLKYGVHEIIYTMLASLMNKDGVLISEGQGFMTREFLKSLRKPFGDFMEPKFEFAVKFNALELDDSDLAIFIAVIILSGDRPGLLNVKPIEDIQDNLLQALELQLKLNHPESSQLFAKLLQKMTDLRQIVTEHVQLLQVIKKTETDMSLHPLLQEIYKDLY
Experimental: as §1, §2, §3

Gal-4 hPPARβ/δ = biological target: T3, Gal-4 hPPARβ/δ (Homo sapiens, UniProt Q03181); experiment: Gal4-hPPARδ transient transfection reporter assay in Cos cells; conditions: luciferase reporter, 24 hours with compound, scale 1-5, read-out: Gal-4 hPPAR β/δ EC50 (scaled number)
T3 construct: Plasmids pGal4-hPPARα, pGal4-hPPARγ, pGal4-hPPARδ and pG5-TK-pGL3 were constructed as previously described by Staels, Bart, et al., Nature 1998 Jun; 25
T3 sequence (Q03181 171-441 limits assumed): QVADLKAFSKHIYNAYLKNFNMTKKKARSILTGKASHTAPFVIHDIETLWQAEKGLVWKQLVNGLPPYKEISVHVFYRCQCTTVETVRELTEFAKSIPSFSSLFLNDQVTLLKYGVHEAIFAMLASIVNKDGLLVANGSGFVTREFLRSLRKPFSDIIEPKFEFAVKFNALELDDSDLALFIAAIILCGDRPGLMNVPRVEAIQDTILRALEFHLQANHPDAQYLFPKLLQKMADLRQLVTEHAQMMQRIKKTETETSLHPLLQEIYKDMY
Experimental: as §1, §2, §3

Compound: C[C@@H](OC(=O)c1ccc(SC(C)(C)C(=O)O)cc1)c1cn(Cc2cccc(C(F)(F)F)c2)nn1 [Compound 139, 4-(1-Carboxy-1-methyl-ethylsulfanyl)-benzoic acid (R)-1-[1-(3-trifluoromethyl-benzyl)-1H-1,2,3-triazol-4-yl]-ethyl ester]
- EC50 (Gal-4 hPPARα): 1 to 50 nM
- EC50 (Gal-4 hPPARγ): > 1000 nM
- EC50 (Gal-4 hPPARβ/δ): > 1000 nM

Compound: CC(C)(Sc1ccc(C(=O)OCCc2cn(Cc3ccc(C(C)(C)C)cc3)nn2)cc1)C(=O)O [Compound 144, 4-(1-Carboxy-1-methyl-ethylsulfanyl)-benzoic acid 2-[1-(4-tert-butyl-benzyl)-1H-1,2,3-triazol-4-yl]-ethyl ester]
- EC50 (Gal-4 hPPARα): 51 to 200 nM
- EC50 (Gal-4 hPPARγ): > 1000 nM
- EC50 (Gal-4 hPPARβ/δ): > 1000 nM

Compound: CC(C)(Sc1ccc(C(=O)OCc2cnn(Cc3ccc(F)c(F)c3)c2)cc1)C(=O)O [Compound 24, 2-(4-(((1-(3,4-difluorobenzyl)-1H-pyrazol-4-yl)methoxy)carbonyl)phenylthio)-2-methylpropanoic acid]
- EC50 (Gal-4 hPPARα): 51 to 200 nM
- EC50 (Gal-4 hPPARγ): > 1000 nM
- EC50 (Gal-4 hPPARβ/δ): > 1000 nM

Compound: C[C@@H](OC(=O)c1ccc(SC(C)(C)C(=O)O)cc1)c1cn(Cc2ccc(SC(F)(F)F)cc2)nn1 [Compound 136, 4-(1-Carboxy-1-methyl-ethylsulfanyl)-benzoic acid (R)-1-[1-(4-trifluoromethylsulfanyl-benzyl)-1H-1,2,3-triazol-4-yl]-ethyl ester]
- EC50 (Gal-4 hPPARα): 1 to 50 nM
- EC50 (Gal-4 hPPARγ): 51 to 200 nM
- EC50 (Gal-4 hPPARβ/δ): > 1000 nM

Compound: CC(C)(Sc1ccc(C(=O)OCc2cnn(-c3ccc(C(F)(F)F)cc3)c2)cc1)C(=O)O [Compound 18, 2-methyl-2-(4-(((1-(4-(trifluoromethyl)phenyl)-1H-pyrazol-4-yl)methoxy)carbonyl)phenylthio)propanoic acid]
- EC50 (Gal-4 hPPARα): 1 to 50 nM
- EC50 (Gal-4 hPPARγ): 201 to 999 nM
- EC50 (Gal-4 hPPARβ/δ): 201 to 999 nM

Compound: C[C@H](Cc1cn(Cc2ccc(C(C)(C)C)cc2)nn1)OC(=O)c1ccc(SC(C)(C)C(=O)O)cc1 [Compound 138, 4-(1-Carboxy-1-methyl-ethylsulfanyl)-benzoic acid (R)-2-[1-(4-tert-butyl-benzyl)-1H-1,2,3-triazol-4-yl]-1-methyl-ethyl ester]
- EC50 (Gal-4 hPPARα): 1 to 50 nM
- EC50 (Gal-4 hPPARγ): > 1000 nM
- EC50 (Gal-4 hPPARβ/δ): > 1000 nM

Compound: CC(C)(Sc1ccc(C(=O)OCc2cnn(Cc3cccc(C(F)(F)F)c3)c2)cc1)C(=O)O [Compound 30, 2-methyl-2-(4-(((1-(3-(trifluoromethyl)benzyl)-1H-pyrazol-4-yl)methoxy)carbonyl)phenylthio)propanoic acid]
- EC50 (Gal-4 hPPARα): 1 to 50 nM
- EC50 (Gal-4 hPPARγ): > 1000 nM
- EC50 (Gal-4 hPPARβ/δ): > 1000 nM

Compound: CCCn1c(COC(=O)c2ccc(SC(C)(C)C(=O)O)cc2)nn(Cc2ccc(-c3ccccc3)cc2)c1=O [Compound 163, 2-(4-(((1-(biphenyl-4-ylmethyl)-5-oxo-4-propyl-4,5-dihydro-1H-1,2,4-triazol-3-yl)methoxy)carbonyl)phenylthio)-2-methylpropanoic acid]
- EC50 (Gal-4 hPPARα): 1 to 50 nM
- EC50 (Gal-4 hPPARγ): > 1000 nM
- EC50 (Gal-4 hPPARβ/δ): > 1000 nM

Compound: CSc1ccc(Cn2cc(COC(=O)c3ccc(SC(C)(C)C(=O)O)cc3)cn2)cc1 [Compound 20, 2-methyl-2-(4-(((1-(4-(methylthio)benzyl)-1H-pyrazol-4-yl)methoxy)carbonyl)phenylthio)propanoic acid]
- EC50 (Gal-4 hPPARα): 1 to 50 nM
- EC50 (Gal-4 hPPARγ): > 1000 nM
- EC50 (Gal-4 hPPARβ/δ): > 1000 nM

Compound: CCCn1c(COC(=O)c2ccc(SC(C)(C)C(=O)O)cc2)nn(Cc2ccc(F)cc2)c1=O [Compound 165, 2-(4-(((1-(4-fluorobenzyl)-5-oxo-4-propyl-4,5-dihydro-1H-1,2,4-triazol-3-yl)methoxy)carbonyl)phenylthio)-2-methylpropanoic acid]
- EC50 (Gal-4 hPPARα): 51 to 200 nM
- EC50 (Gal-4 hPPARγ): > 1000 nM
- EC50 (Gal-4 hPPARβ/δ): > 1000 nM

Compound: C[C@H](OC(=O)c1ccc(SC(C)(C)C(=O)O)cc1)c1cn(Cc2ccc(C(F)(F)F)cc2)nn1 [Compound 97, (S)-2-methyl-2-(4-((1-(1-(4-(trifluoromethyl)benzyl)-1H-1,2,3-triazol-4-yl)ethoxy)carbonyl)phenylthio)propanoic acid]
- EC50 (Gal-4 hPPARα): 201 to 999 nM
- EC50 (Gal-4 hPPARγ): > 1000 nM
- EC50 (Gal-4 hPPARβ/δ): > 1000 nM

More lines, now with the values ahead:

- EC50 (Gal-4 hPPARα): 51 to 200 nM
- EC50 (Gal-4 hPPARγ): > 1000 nM
- EC50 (Gal-4 hPPARβ/δ): > 1000 nM
Compound: CCCn1c(COC(=O)c2ccc(SC(C)(C)C(=O)O)cc2)nn(Cc2ccc(SC(F)(F)F)cc2)c1=O [Compound 179, 2-methyl-2-(4-(((5-oxo-4-propyl-1-(4-(trifluoromethylthio)benzyl)-4,5-dihydro-1H-1,2,4-triazol-3-yl)methoxy)carbonyl)phenylthio)propanoic acid]

- EC50 (Gal-4 hPPARα): 51 to 200 nM
- EC50 (Gal-4 hPPARγ): > 1000 nM
- EC50 (Gal-4 hPPARβ/δ): > 1000 nM
Compound: CCn1c(COC(=O)c2ccc(OC(C)(C)C(=O)O)cc2)nn(Cc2ccc(C(C)(C)C)cc2)c1=O [Compound 196, 2-(4-(((1-(4-tert-butylbenzyl)-4-ethyl-5-oxo-4,5-dihydro-1H-1,2,4-triazol-3-yl)methoxy)carbonyl)phenoxy)-2-methylpropanoic acid]

- EC50 (Gal-4 hPPARα): 51 to 200 nM
- EC50 (Gal-4 hPPARγ): > 1000 nM
- EC50 (Gal-4 hPPARβ/δ): > 1000 nM
Compound: Cc1ccc(Cn2nc(COC(=O)c3ccc(SC(C)(C)C(=O)O)cc3)[nH]c2=O)cc1 [Compound 261, 4-(1-Carboxy-1-methyl-ethylsulfanyl)-benzoic acid 1-(4-methyl-benzyl)-5-oxo-4,5-dihydro-1H-1,2,4-triazol-3-ylmethyl ester]

- EC50 (Gal-4 hPPARα): 201 to 999 nM
- EC50 (Gal-4 hPPARγ): > 1000 nM
- EC50 (Gal-4 hPPARβ/δ): > 1000 nM
Compound: CCCn1c(COC(=O)c2ccc(OC(C)(C)C(=O)O)cc2)nn(Cc2cc(C(F)(F)F)cc(C(F)(F)F)c2)c1=O [Compound 206, 2-(4-(((1-(3,5-bis(trifluoromethyl)benzyl)-5-oxo-4-propyl-4,5-dihydro-1H-1,2,4-triazol-3-yl)methoxy)carbonyl)phenoxy)-2-methylpropanoic acid]

- EC50 (Gal-4 hPPARα): 1 to 50 nM
- EC50 (Gal-4 hPPARγ): 201 to 999 nM
- EC50 (Gal-4 hPPARβ/δ): > 1000 nM
Compound: CCCn1c(COC(=O)c2ccc(SC(C)(C)C(=O)O)cc2)nn(Cc2cc(C(F)(F)F)cc(C(F)(F)F)c2)c1=O [Compound 177, 2-(4-(((1-(3,5-bis(trifluoromethyl)benzyl)-5-oxo-4-propyl-4,5-dihydro-1H-1,2,4-triazol-3-yl)methoxy)carbonyl)phenylthio)-2-methylpropanoic acid]

- EC50 (Gal-4 hPPARα): 201 to 999 nM
- EC50 (Gal-4 hPPARγ): > 1000 nM
- EC50 (Gal-4 hPPARβ/δ): > 1000 nM
Compound: CCCn1c(COC(=O)c2ccc(OC(C)(C)C(=O)O)cc2)nn(Cc2ccc(SC(F)(F)F)cc2)c1=O [Compound 210, 2-methyl-2-(4-(((5-oxo-4-propyl-1-(4-(trifluoromethylthio)benzyl)-4,5-dihydro-1H-1,2,4-triazol-3-yl)methoxy)carbonyl)phenoxy)propanoic acid]

- EC50 (Gal-4 hPPARα): 201 to 999 nM
- EC50 (Gal-4 hPPARγ): > 1000 nM
- EC50 (Gal-4 hPPARβ/δ): > 1000 nM
Compound: CCCn1c(COC(=O)c2ccc(OC(C)(C)C(=O)O)c(C)c2)nn(Cc2ccc(C(C)(C)C)cc2)c1=O [Compound 266, 4-(1-Carboxy-1-methyl-ethoxy)-3-methyl-benzoic acid 1-(4-tert-butyl-benzyl)-5-oxo-4-propyl-4,5-dihydro-1H-1,2,4-triazol-3-ylmethyl ester]
